Consider 19 molecules from patent US20250228239A1, “MOLECULES HAVING PESTICIDAL UTILITY, AND INTERMEDIATES, COMPOSITIONS, AND PROCESSES, RELATED THERETO” (priority 2024, published 2025).

Experiment [1] has as its system Beet Armyworm (Spodoptera exigua, LAPHEG). Nature of the experiment: Bioassays on Beet Armyworm (BAW), 128-well diet tray assay. The format is in vivo. As to conditions: Spodoptera exigua. The method, boiled down:
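Eight diet wells per compound were treated at 50 μg/cm^2 (acetone-water 90:10), dried, then infested with 1–5 second-instar larvae each. After five to seven days at 25 °C under 14:10 photoperiod, mortality was scored and averaged across wells.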

Experiment [2] concerns Cabbage Looper (Trichoplusia ni, TRIPNI). Nature of the experiment: Bioassays on Cabbage Looper (CL), 128-well diet tray assay. The format is in vivo. To be noted: Trichoplusia ni. The method, boiled down: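 Percent mortality, averaged across eight replicate wells, after second-instar larvae (1–5 per well) fed for five to seven days on diet dosed at 50 μg/cm^2. Compound was applied in acetone-water 90:10 and dried; trays kept vented at 25° C under 14:10 photoperiod.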

The mark [3] stands for this setting: Beet Armyworm, Table ABC / ABC-DP rating, read-out: BAW rating.
The mark [4] stands for this setting: Cabbage Looper, Table ABC / ABC-DP rating, read-out: CL rating.
Where [5] appears, read: Beet Armyworm, rating class, read-out: BAW.
[6] abbreviates: Cabbage Looper, rating class, read-out: CL.
Where [7] appears, read: Table ABC: Biological Results, species BAW, read-out: BAW.
Where [8] appears, read: Table ABC: Biological Results, species CL, read-out: CL.

Read-outs that look alike come from different tables or passages of the source.

As for `C=C(F)C(=O)Nc1c(F)ccc(NC(=O)c2cc(NC(=O)[C@H]3[C@H](c4ccc(Cl)c(Cl)c4)C3(Cl)Cl)ccc2Cl)c1F` [F1871, 2-Chloro-5-((1R,3R)-2,2-dichloro-3-(3,4-dichlorophenyl)cyclopropane-1-carboxamido)-N-(2,4-difluoro-3-(2-fluoroacrylamido)phenyl)benzamide], the pest or weed control at 50 µg/cm2 in experiment [1] (setting [3]) and in experiment [2] (setting [4]) was 50 to 100% in each case.

In the case of `CC(C)(C)OC(=O)N(C(=O)OC(C)(C)C)c1c(F)ccc(NC(=O)c2cc(NC(=O)[C@H]3[C@H](c4cccc(C(F)(F)F)c4)C3(Cl)Cl)ccc2Cl)c1F` [F1665, tert-Butyl N-tert-butoxycarbonyl-N-[3-[[2-chloro-5-[[(1R,3R)-2,2-dichloro-3-[3-(trifluoromethyl)phenyl]cyclopropanecarbonyl]amino]benzoyl]amino]-2,6-difluoro-phenyl]carbamate], the pest or weed control at 50 µg/cm2 in experiment [1] (setting [5]) and in experiment [2] (setting [6]) was 50 to 100% each time.

Take `Nc1cc(NC(=O)c2cc(NC(=O)[C@H]3[C@H](c4ccc(F)c(C(F)(F)F)c4)C3(Cl)Cl)cc(F)c2Cl)c(F)cc1F` [F1398, N-(5-Amino-2,4-difluorophenyl)-2-chloro-5-((1R,3R)-2,2-dichloro-3-(4-fluoro-3-(trifluoromethyl)phenyl)cyclopropane-1-carboxamido)-3-fluorobenzamide]: the pest or weed control at 50 µg/cm2 in experiment [1] (setting [5]) and in experiment [2] (setting [6]) was 50 to 100% in each case.

As to `Cc1cc(NCCO)ccc1NC(=O)c1cc(NC(=O)[C@H]2[C@H](c3ccc(F)c(C(F)(F)F)c3)C2(Cl)Cl)ccc1Cl` [F1145, 2-Chloro-5-((1R,3R)-2,2-dichloro-3-(4-fluoro-3-(trifluoromethyl)phenyl)cyclopropane-1-carboxamido)-N-(4-((2-hydroxyethyl)amino)-2-methylphenyl)benzamide], the pest or weed control at 50 µg/cm2 in experiment [1] (setting [7]) and in experiment [2] (setting [8]) was 50 to 100% throughout.

As for `CC(=O)C(=O)Nc1c(F)ccc(NC(=O)c2cc(NC(=O)[C@H]3[C@H](c4ccc(F)c(C(F)(F)F)c4)C3(Cl)Cl)ccc2Cl)c1F` [F1754, 2-Chloro-5-((1R,3R)-2,2-dichloro-3-(4-fluoro-3-(trifluoromethyl)phenyl)cyclopropane-1-carboxamido)-N-(2,4-difluoro-3-(2-oxopropanamido)phenyl)benzamide], the pest or weed control at 50 µg/cm2 in experiment [1] (setting [5]) and in experiment [2] (setting [6]) was 50 to 100% throughout.

Consider `O=C(CCC(F)(F)C(F)(F)F)Nc1c(F)ccc(NC(=O)c2cc(NC(=O)[C@H]3[C@H](c4ccc(Cl)c(Cl)c4)C3(Cl)Cl)ccc2Cl)c1F` [F1861, 2-Chloro-5-((1R,3R)-2,2-dichloro-3-(3,4-dichlorophenyl)cyclopropane-1-carboxamido)-N-(2,4-difluoro-3-(4,4,5,5,5-pentafluoropentanamido)phenyl) benzamide], for which the pest or weed control at 50 µg/cm2 in experiment [1] (setting [3]) and in experiment [2] (setting [4]) was 50 to 100% throughout.

For the molecule `CC(OC(F)(F)F)C(=O)Nc1c(F)ccc(NC(=O)c2cc(NC(=O)[C@H]3[C@H](c4cc(F)cc(C(F)(F)F)c4)C3(Cl)Cl)ccc2Cl)c1F` (stereo partly drawn) [F1773, 2-Chloro-5-((1R,3R)-2,2-dichloro-3-(3-fluoro-5-(trifluoromethyl)phenyl)cyclopropane-1-carboxamido)-N-(2,4-difluoro-3-(2-(trifluoromethoxy)propanamido)phenyl)benzamide], the pest or weed control at 50 µg/cm2 in experiment [1] (setting [3]) and in experiment [2] (setting [4]) was 50 to 100% throughout.

`O=C(Nc1ccc(F)c(NC(=O)[C@H]2CCCN2)c1F)c1cc(NC(=O)[C@H]2[C@H](c3ccc(Cl)c(Cl)c3)C2(Cl)Cl)ccc1Cl` [F1663, (R)—N-(3-(2-Chloro-5-((1R,3R)-2,2-dichloro-3-(3,4-dichlorophenyl)cyclopropane-1-carboxamido)benzamido)-2,6-difluorophenyl)pyrrolidine-2-carboxamide]: the pest or weed control at 50 µg/cm2 in experiment [1] (setting [5]) and in experiment [2] (setting [6]) was 50 to 100% in each case.

Regarding `O=C(Nc1c(F)ccc(NC(=O)C(F)F)c1F)c1cc(NC(=O)[C@H]2[C@H](c3cc(Cl)c(Cl)c(Cl)c3)C2(Cl)Cl)cc(F)c1Cl` [F1343, 2-Chloro-5-((1R,3R)-2,2-dichloro-3-(3,4,5-trichlorophenyl)cyclopropane-1-carboxamido)-N-(3-(2,2-difluoroacetamido)-2,6-difluorophenyl)-3-fluorobenzamide], the pest or weed control at 50 µg/cm2 in experiment [1] (setting [7]) and in experiment [2] (setting [8]) was 50 to 100% each time.

As to `O=C(Nc1c(F)ccc(NC(=O)C(F)(F)C(F)F)c1F)c1cc(NC(=O)[C@H]2[C@H](c3ccc(F)c(C(F)(F)F)c3)C2(Cl)Cl)ccc1Cl` [F1564, 2-Chloro-5-((1R,3R)-2,2-dichloro-3-(4-fluoro-3-(trifluoromethyl)phenyl)cyclopropane-1-carboxamido)-N-(2,6-difluoro-3-(2,2,3,3-tetrafluoropropanamido)phenyl)benzamide], the pest or weed control at 50 µg/cm2 in experiment [1] (setting [5]) and in experiment [2] (setting [6]) was 50 to 100% throughout.

For the molecule `Cc1ccc(NNC(=O)c2cc(NC(=O)[C@H]3[C@H](c4cc(Cl)cc(Cl)c4)C3(Cl)Cl)ccc2Cl)cc1` (relative stereo) [F2575, trans-2,2-Dichloro-N-(4-chloro-3-(2-(p-tolyl)hydrazine-1-carbonyl)phenyl)-3-(3,5-dichlorophenyl)cyclopropane-1-carboxamide], the mortality at 50 µg/cm2 in experiment [1] (168 h, second instar larvae, 50 μg/cm^2 of test molecule on artificial diet, 25° C., five to seven days, average of eight wells, read-out: BAW % Control (or Mortality) rating) lay within 50 to 100%; in experiment [2] (168 h, second instar larvae, 50 μg/cm^2 of test molecule on artificial diet, 25° C., five to seven days, average of eight wells, read-out: CL % Control (or Mortality) rating), 50 to 100%. Further, the pest or weed control at 50 µg/cm2 in experiment [1] (setting [3]) and in experiment [2] (setting [4]) was 50 to 100% in each case.

As for `O=C(Nc1cc(NC(=O)C(F)F)c(F)cc1F)c1cc(NC(=O)[C@H]2[C@H](c3ccc(Cl)c(Cl)c3)C2(Cl)Cl)cc(F)c1Cl` [F1402, 2-Chloro-5-((1R,3R)-2,2-dichloro-3-(3,4-dichlorophenyl)cyclopropane-1-carboxamido)-N-(5-(2,2-difluoroacetamido)-2,4-difluorophenyl)-3-fluorobenzamide], the pest or weed control at 50 µg/cm2 in experiment [1] (setting [5]) and in experiment [2] (setting [6]) was 50 to 100% each time.

With `O=C(Nc1c(F)ccc(NC(=O)C(F)(F)F)c1F)c1cc(NC(=O)[C@H]2[C@H](c3ccc(Cl)c(Cl)c3)C2(Cl)Cl)cc(F)c1Cl` [F1344, 2-Chloro-5-((1R,3R)-2,2-dichloro-3-(3,4-dichlorophenyl)cyclopropane-1-carboxamido)-N-(2,6-difluoro-3-(2,2,2-trifluoroacetamido)phenyl)-3-fluorobenzamide], the pest or weed control at 50 µg/cm2 in experiment [1] (setting [7]) and in experiment [2] (setting [8]) was 50 to 100% each time.

For `O=C(Nc1cc(NC(=O)C(F)F)c(F)cc1F)c1cc(NC(=O)[C@H]2[C@H](c3cc(Cl)c(Cl)c(Cl)c3)C2(Cl)Cl)cc(F)c1F` [F1580, 5-((1R,3R)-2,2-Dichloro-3-(3,4,5-trichlorophenyl)cyclopropane-1-carboxamido)-N-(5-(2,2-difluoroacetamido)-2,4-difluorophenyl)-2,3-difluorobenzamide], the pest or weed control at 50 µg/cm2 in experiment [1] (setting [5]) and in experiment [2] (setting [6]) was 50 to 100% in each case.

For the molecule `CC(=O)Nc1c(F)cc(NC(=O)c2cc(NC(=O)[C@H]3[C@H](c4ccc(Cl)c(Cl)c4)C3(Cl)Cl)ccc2Cl)cc1F` (relative stereo) [F1124, trans-N-(4-Acetamido-3,5-difluorophenyl)-2-chloro-5-(2,2-dichloro-3-(3,4-dichlorophenyl)cyclopropane-1-carboxamido)benzamide], the pest or weed control at 50 µg/cm2 in experiment [1] (setting [7]) and in experiment [2] (setting [8]) was 50 to 100% each time.

Regarding `Nc1c(Cl)cc(NC(=O)c2cc(NC(=O)[C@H]3[C@H](c4ccc(F)c(Cl)c4)C3(Cl)Cl)ccc2Cl)cc1Cl` (relative stereo) [F1367, trans-N-(4-Amino-3,5-dichlorophenyl)-2-chloro-5-(2,2-dichloro-3-(3-chloro-4-fluorophenyl)cyclopropane-1-carboxamido)benzamide], the pest or weed control at 50 µg/cm2 in experiment [1] (setting [7]) and in experiment [2] (setting [8]) was 50 to 100% in each case.

`CC(=O)Nc1cc(F)ccc1NC(=O)c1cc(NC(=O)[C@H]2[C@H](c3ccc(Cl)c(Cl)c3)C2(Cl)Cl)ccc1Cl` (relative stereo) [F1125, trans-N-(2-Acetamido-4-fluorophenyl)-2-chloro-5-(2,2-dichloro-3-(3,4-dichlorophenyl)cyclopropane-1-carboxamido)benzamide]: the pest or weed control at 50 µg/cm2 in experiment [1] (setting [7]) and in experiment [2] (setting [8]) was 50 to 100% each time.

`O=C(COC(F)(F)F)Nc1c(F)ccc(NC(=O)c2cc(NC(=O)[C@H]3[C@H](c4cc(F)cc(C(F)(F)F)c4)C3(Cl)Cl)ccc2Cl)c1F` [F1772, 2-Chloro-5-((1R,3R)-2,2-dichloro-3-(3-fluoro-5-(trifluoromethyl)phenyl)cyclopropane-1-carboxamido)-N-(2,4-difluoro-3-(2-(trifluoromethoxy)acetamido)phenyl)benzamide]: the pest or weed control at 50 µg/cm2 in experiment [1] (setting [3]) and in experiment [2] (setting [4]) was 50 to 100% each time.

For the molecule `O=C(Nc1ccc(F)c(NC(=O)C(F)(F)C(F)F)c1F)c1cc(NC(=O)[C@H]2[C@H](c3ccc(F)c(Br)c3)C2(Cl)Cl)ccc1Cl` [F1715, 5-((1R,3R)-3-(3-Bromo-4-fluorophenyl)-2,2-dichlorocyclopropane-1-carboxamido)-2-chloro-N-(2,4-difluoro-3-(2,2,3,3-tetrafluoropropanamido)phenyl)benzamide], the pest or weed control at 50 µg/cm2 in experiment [1] (setting [5]) and in experiment [2] (setting [6]) was 50 to 100% each time.
